Broadly, the pKi is −log10 of the Ki, conventionally taken in molar units.

Each structure is given as a SMILES string. pKi: −log10 of the molar value.

These results are taken from patent US5578616A, “Phenyl-alkyl-imidazoles” (Schering Corporation, priority 1995, dated 1996).

For the first assay, the target named is T1, H3 receptor (Cavia porcellus, UniProt Q9JI35).
T1 construct: The source of the H3 receptors in this experiment was guinea pig brain; from tissue; host or cells: guinea pig brain membranes
T1 sequence (Q9JI35 whole entry): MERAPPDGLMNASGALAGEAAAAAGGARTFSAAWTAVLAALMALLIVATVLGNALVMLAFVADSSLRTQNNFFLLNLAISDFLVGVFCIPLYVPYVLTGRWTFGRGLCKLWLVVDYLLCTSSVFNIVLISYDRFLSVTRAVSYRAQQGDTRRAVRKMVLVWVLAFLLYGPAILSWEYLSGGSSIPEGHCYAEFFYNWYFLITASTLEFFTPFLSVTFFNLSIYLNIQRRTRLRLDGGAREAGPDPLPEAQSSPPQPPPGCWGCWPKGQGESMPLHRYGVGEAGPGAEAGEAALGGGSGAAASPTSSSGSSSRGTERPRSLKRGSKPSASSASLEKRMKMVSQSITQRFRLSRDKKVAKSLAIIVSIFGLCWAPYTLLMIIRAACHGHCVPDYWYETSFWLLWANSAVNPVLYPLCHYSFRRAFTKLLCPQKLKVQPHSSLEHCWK
Kind of assay: H3 Receptor Binding Assay. Also noted: species or system guinea pig.
Conditions: not given
The method, then:
The source of the H3 receptors in this experiment was guinea pig brain. The animals weighed 400-600 g. The brain tissue was homogenized using a Polytron in a solution of 50 mM Tris, pH 7.5. The final concentration of tissue in the homogenization buffer was 10% w/v. The homogenates were centrifuged at 1,000× g for 10 min. in order to remove clumps of tissue and debris. The resulting supernatants were then centrifuged at 50,000× g for 20 min. in order to sediment the membranes, which were next washed three times in homogenization buffer (50,000× g for 20 min. each). The membranes were frozen and stored at -70° C. until needed.
All compounds to be tested were dissolved in DMSO and then diluted into the binding buffer (50 mM Tris, pH 7.5) such that the final concentration was 2 μg/mL with 0.1% DMSO. Membranes were then added (400 μg of protein) to the reaction tubes. The reaction was started by the addition of 3 nM [^3 H]R-α-methylhistamine (8.8 Ci/mmol) or 3 nM [^3 H]N^α -methylhistamine (80 Ci/mmol) and continued under incubation at 30° C. for 30 min. Bound ligand was separated from unbound ligand by filtration, and the amount of radioactive ligand bound to the membranes was quantitated by liquid scintillation spectrometry. All incubations were performed in duplicate and the standard error was always less than 10%. Compounds that inhibited more than 70% of the specific binding of radioactive ligand to the receptor were serially diluted to determine a Ki (μM).
In turn, `NCc1ccc(Cc2c[nH]cn2)cc1` [Compound 21, 4-[(1H-Imidazol-4-yl)methyl]benzenemethanamine] gave a pKi of 7.11.

`N=C(CCc1ccc(Cc2cnc[nH]2)cc1)NCc1ccc(Cl)cc1` [Compound 27, N-[(4-Chlorophenyl)methyl]-4-[(1H-imidazol-4-yl)methyl]benzene propanimidamide] gave a pKi of 6.74.

`COc1ccc(C/N=C(\N)c2ccc(Cc3c[nH]cn3)cc2)cc1` [Compound 6a, N-[(4-Methoxyphenyl)methyl]-4-[(1H-imidazol-4-yl)methyl]benzene methanimidamide] showed a pKi of 6.25.

As to `O=C(Nc1ccc(Cl)cc1)OCc1ccc(Cc2c[nH]cn2)cc1` [Compound 38, [4-(1H-Imidazol-4-ylmethyl)phenyl]methyl N-(4-chlorophenyl)carbamate], the pKi is 7.62.

On to `N=C(NCc1ccc(Cl)cc1)c1ccc(Cc2c[nH]cn2)cc1` [Compound 6, N-[(4-Chlorophenyl)methyl]-4-[(1H-imidazol-4-yl)methyl]benzene methanimidamide], for which the pKi is 7.85.

Staying with this assay, now noted: guinea pig brain membranes; 3 nM [^3 H]R-α-methylhistamine or 3 nM [^3 H]N^α -methylhistamine; 30° C., 30 min, pH 7.5; read-out: Ki.
Take `N=C(N)c1ccc(Cc2c[nH]cn2)cc1` [Compound 9, 4-[(1H-Imidazol-4-yl)methyl]benzene methanimidamide]: the pKi was 7.42.

Regarding `N=C(N)c1ccc(CCc2cnc[nH]2)cc1` [Compound 17, 4-[(1H-Imidazol-4-yl)ethyl]benzene methanimidamide], the pKi is 6.77.

As for `N=C(N)c1cccc(CCc2c[nH]cn2)c1` [Compound 16, 3-[(1H-Imidazol-4-yl)ethyl]benzene methanimidamide], the pKi was 6.66.

As for `N=C(NCc1ccc(C(F)(F)F)cc1)c1ccc(Cc2c[nH]cn2)cc1` [Compound 6b, N-[(4-trifluoromethylphenyl)methyl]-4-[(1H-imidazol-4-yl)methyl]benzenemethanimidamide], the pKi was 6.85.

On to `N=C(NCCc1ccccc1)c1ccc(Cc2c[nH]cn2)cc1` [Compound 6d, N-(2-Phenylethyl)-4-[(1H-imidazol-4-yl)methyl]benzene methanimidamide], for which the pKi is 6.35.

As to `N=C(N)c1cccc(Cc2c[nH]cn2)c1` [Compound 10, 3-[(1H-Imidazol-4-yl)methyl]benzene methanimidamide], the pKi is 6.51.

With `N=C(Cc1ccc(Cc2c[nH]cn2)cc1)NCc1ccc(Cl)cc1` [Compound 29, N-[(4-Chlorophenyl)methyl]-4-[(1H-imidazol-4-yl)methyl]benzene ethanimidamide], the pKi is 8.14.

Staying with this assay, now noted: pH 7.5, read-out: Inhibition of binding of radioactive ligand, Inhibition (%) at 2 μg/ml.
Turning to `O=C(OCc1ccc(Cc2c[nH]cn2)cc1)c1ccc(Cl)cc1` [Compound 40, [4-(1H-Imidazol-4-ylmethyl)phenyl]methyl 4-chlorobenzoate], the inhibition at 2 µg/mL came to 10%.

On to `O=C(OCc1ccc(Cl)cc1)c1ccc(Cc2c[nH]cn2)cc1` [Compound 43, (4-Chlorophenyl)methyl 4-(1H-imidazol-4-ylmethyl)benzoate], for which the inhibition at 2 µg/mL is 16 to 78%.

For `Clc1ccc(COCc2ccc(Cc3c[nH]cn3)cc2)cc1` [Compound 36, 4-[[4-[[(4-Chlorophenyl)methoxy]methyl]phenyl]methyl]-1H-imidazole], the inhibition at 2 µg/mL fell in the range of 6 to 87%.

`O=C(NCc1ccc(Cl)cc1)c1ccc(Cc2c[nH]cn2)cc1` [Compound 33, N-[(4-Chlorophenyl)methyl]-4-(1H-imidazol-4-ylmethyl)benzamide]: the inhibition at 2 µg/mL was found to be 61%.

Regarding `N=C(NCc1ccncc1)c1ccc(Cc2c[nH]cn2)cc1` [Compound 6c, N-[(4-Pyridyl)methyl]-4-[(1H-imidazol-4-yl)methyl]benzene methanimidamide], the inhibition at 2 µg/mL amounted to 48%.

The next assay relates to H3 receptors.
Test: not given
The following applies: rat; cited from earlier work.
As for `S=C(NC1CCCCC1)N1CCC(c2cnc[nH]2)CC1` [thioperamide], the “short-term memory and reversal learning” value was “can improve short-term memory and reversal learning”.

For a further assay, the system named is histamine H3 receptor.
Test: not given
The conditions noted are these: mice, electrically induced convulsions; cited from earlier work.
Take `S=C(NC1CCCCC1)N1CCC(c2cnc[nH]2)CC1` [thioperamide]: the “duration of each phase of convulsion” value is reported as “decreased the duration of each phase of convulsion”.

Still in this assay, the particulars now being: mice; cited from earlier work.
Take `S=C(NC1CCCCC1)N1CCC(c2cnc[nH]2)CC1` [thioperamide]: the electroconvulsive threshold entry was “raised the electroconvulsive threshold”.
